Structures are written as SMILES. Counter-ions that a name gives are not always drawn. Where only a bound is given, the exact number is not on record here.

The target of the experiment is rat TRPV1 (Rattus norvegicus (Rat), UniProt O35433). As to conditions: read-out: Rat IC50.
Sequence of rat TRPV1 (O35433 whole entry): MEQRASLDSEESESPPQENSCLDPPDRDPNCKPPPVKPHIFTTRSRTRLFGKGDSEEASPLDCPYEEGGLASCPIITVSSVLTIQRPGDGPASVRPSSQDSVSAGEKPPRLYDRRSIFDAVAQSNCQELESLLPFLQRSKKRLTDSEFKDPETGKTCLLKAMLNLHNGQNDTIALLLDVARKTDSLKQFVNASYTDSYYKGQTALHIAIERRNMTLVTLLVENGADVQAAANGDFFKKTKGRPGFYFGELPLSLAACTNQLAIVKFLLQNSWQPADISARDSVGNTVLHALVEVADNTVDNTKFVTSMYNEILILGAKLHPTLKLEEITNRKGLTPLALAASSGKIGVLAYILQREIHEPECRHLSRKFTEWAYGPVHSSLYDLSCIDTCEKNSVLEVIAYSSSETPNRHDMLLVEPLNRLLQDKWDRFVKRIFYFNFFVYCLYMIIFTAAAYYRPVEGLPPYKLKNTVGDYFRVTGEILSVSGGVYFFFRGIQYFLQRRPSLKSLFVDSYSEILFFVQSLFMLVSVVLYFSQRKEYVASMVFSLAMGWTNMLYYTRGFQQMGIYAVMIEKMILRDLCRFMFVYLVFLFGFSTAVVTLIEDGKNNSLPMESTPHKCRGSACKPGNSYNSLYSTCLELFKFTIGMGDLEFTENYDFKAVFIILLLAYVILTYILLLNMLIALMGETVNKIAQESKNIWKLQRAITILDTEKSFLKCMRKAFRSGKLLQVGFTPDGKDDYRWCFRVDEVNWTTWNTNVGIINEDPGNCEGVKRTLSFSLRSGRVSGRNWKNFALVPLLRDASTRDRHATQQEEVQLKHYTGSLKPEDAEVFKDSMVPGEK
For `CC(C)(C)c1ccc(Nc2nc(N3CCCCC3)nc3c2CCN(c2ncccc2C(F)(F)F)CC3)cc1N` [Example 200, 4-(1,1-Dimethylethyl)-N1-{2-piperidin-1-yl-7-[3-(trifluoromethyl)pyridin-2-yl]-6,7,8,9-tetrahydro-5H-pyrimido[4,5-d]azepin-4-yl}benzene-1,3-diamine], the IC50 (usually the midpoint of a concentration-inhibition curve) turned out to be 110 nM.

Take `CC(C)c1nc2c(c(Nc3ccc(C(C)(C)C)cc3)n1)CCN(c1ncc(N)cc1C(F)(F)F)CC2` [Example 201, 7-[5-Amino-3-(trifluoromethyl)pyridin-2-yl]-N-[4-(1,1-dimethylethyl)phenyl]-2-(1-methylethyl)-6,7,8,9-tetrahydro-5H-pyrimido[4,5-d]azepin-4-amine]: the concentration for half-maximal inhibition (IC50) came to 320 nM.

On to `CSc1nc2c(c(Nc3ccc(C(C)(C)C)cc3)n1)CCN(c1ncccc1C(F)(F)F)CC2` [Example 202, N-[4-(1,1-Dimethylethyl)phenyl]-2-(methylsulfanyl)-7-[3-(trifluoromethyl)pyridin-2-yl]-6,7,8,9-tetrahydro-5H-pyrimido[4,5-d]azepin-4-amine], for which the IC50 is 12400 nM.

As for `CSc1nc2c(c(Nc3ccc(C(F)(F)F)cc3Cl)n1)CCN(c1ncccc1C(F)(F)F)CC2` [Example 203, N-[2-Chloro-4-(trifluoromethyl)phenyl]-2-(methylsulfanyl)-7-[3-(trifluoromethyl)pyridin-2-yl]-6,7,8,9-tetrahydro-5H-pyrimido[4,5-d]azepin-4-amine], the IC50 is above 6670 nM.

In the case of `CSc1nc2c(c(Nc3ccc(C(F)(F)F)cc3C)n1)CCN(c1ncccc1C(F)(F)F)CC2` [Example 204, 2-(Methylsulfanyl)-N-[2-methyl-4-(trifluoromethyl)phenyl]-7-[3-(trifluoromethyl)pyridin-2-yl]-6,7,8,9-tetrahydro-5H-pyrimido[4,5-d]azepin-4-amine], the IC50 came to 560 nM. With `CSc1nc2c(c(Nc3ccc4c(c3)N(C)CCC4)n1)CCN(c1ncccc1C(F)(F)F)CC2` [Example 205, 2-(Methylsulfanyl)-N-(1-methyl-1,2,3,4-tetrahydroquinolin-7-yl)-7-[3-(trifluoromethyl)pyridin-2-yl]-6,7,8,9-tetrahydro-5H-pyrimido[4,5-d]azepin-4-amine] the figure was 2280 nM. As for `CC(C)(C)c1ccc(Nc2nc(S(C)(=O)=O)nc3c2CCN(c2ncccc2C(F)(F)F)CC3)cc1` [Example 207, N-[4-(1,1-Dimethylethyl)phenyl]-2-(methylsulfonyl)-7-[3-(trifluoromethyl)pyridin-2-yl]-6,7,8,9-tetrahydro-5H-pyrimido[4,5-d]azepin-4-amine], the IC50 turned out to be 770 nM. With `Cc1cc(C(F)(F)F)ccc1Nc1nc(S(C)(=O)=O)nc2c1CCN(c1ncccc1C(F)(F)F)CC2` [Example 209, 2-(Methylsulfonyl)-N-[2-methyl-4-(trifluoromethyl)phenyl]-7-[3-(trifluoromethyl)pyridin-2-yl]-6,7,8,9-tetrahydro-5H-pyrimido[4,5-d]azepin-4-amine] the figure was 3450 nM.

`O=S1(=O)CCCCN1c1nc2c(c(Nc3ccc(C(F)(F)F)cc3)n1)CCN(c1ncccc1C(F)(F)F)CC2` [Example 212, 2-(1,1-Dioxido-1,2-thiazinan-2-yl)-N-[4-(trifluoromethyl)phenyl]-7-[3-(trifluoromethyl)pyridin-2-yl]-6,7,8,9-tetrahydro-5H-pyrimido[4,5-d]azepin-4-amine trifluoroacetic acid salt]: the IC50 was 220 nM. The result for `COCCNc1nc2c(c(Nc3ccc(C(F)(F)F)cc3)n1)CCN(c1ncccc1C(F)(F)F)CC2` [Example 213, N^2-[2-(Methyloxy)ethyl]-N^4-[4-(trifluoromethyl)phenyl]-7-[3-(trifluoromethyl)pyridin-2-yl]-6,7,8,9-tetrahydro-5H-pyrimido[4,5-d]azepine-2,4-diamine trifluoroacetic acid salt] reads 110 nM; that for `COC[C@@H]1CCCN1c1nc2c(c(Nc3ccc(C(F)(F)F)cc3)n1)CCN(c1ncccc1C(F)(F)F)CC2` [Example 215, 2-{(2S)-2-[(Methyloxy)methyl]pyrrolidin-1-yl}-N-[4-(trifluoromethyl)phenyl]-7-[3-(trifluoromethyl)pyridin-2-yl]-6,7,8,9-tetrahydro-5H-pyrimido[4,5-d]azepin-4-amine trifluoroacetic acid salt], 10 nM; that for `CN(Cc1ccco1)c1nc2c(c(Nc3ccc(C(F)(F)F)cc3)n1)CCN(c1ncccc1C(F)(F)F)CC2` [Example 216, N^2-(Furan-2-ylmethyl)-N^2-methyl-N^4-[4-(trifluoromethyl)phenyl]-7-[3-(trifluoromethyl)pyridin-2-yl]-6,7,8,9-tetrahydro-5H-pyrimido[4,5-d]azepine-2,4-diamine trifluoroacetic acid salt], 50 nM.

On to `FC(F)(F)c1ccc(Nc2nc(N3CCC3)nc3c2CCN(c2ncccc2C(F)(F)F)CC3)cn1` [Example 217, 2-Azetidin-1-yl-7-[3-(trifluoromethyl)pyridin-2-yl]-N-[6-(trifluoromethyl)pyridin-3-yl]-6,7,8,9-tetrahydro-5H-pyrimido[4,5-d]azepin-4-amine], for which the IC50 turned out to be 390 nM. The result for `CN(C)c1nc2c(c(NCc3ccc(C(F)(F)F)nc3)n1)CCN(c1ncccc1C(F)(F)F)CC2` [Example 218, N^2,N^2-Dimethyl-7-[3-(trifluoromethyl)pyridin-2-yl]-N^4-{[6-(trifluoromethyl)pyridin-3-yl]methyl}-6,7,8,9-tetrahydro-5H-pyrimido[4,5-d]azepine-2,4-diamine trifluoroacetic acid salt] reads 120 nM; that for `CN1CCN(c2nc3c(c(Nc4ccc(C(F)(F)F)nc4)n2)CCN(c2ncccc2C(F)(F)F)CC3)CC1` [Example 220, 2-(4-Methylpiperazin-1-yl)-7-[3-(trifluoromethyl)pyridin-2-yl]-N-[6-(trifluoromethyl)pyridin-3-yl]-6,7,8,9-tetrahydro-5H-pyrimido[4,5-d]azepin-4-amine], 1520 nM; that for `CN1CCN(c2nc3c(c(Nc4ccc(C(F)(F)F)c(Cl)c4)n2)CCN(c2ncccc2C(F)(F)F)CC3)CC1` [Example 221, N-[3-Chloro-4-(trifluoromethyl)phenyl]-2-(4-methylpiperazin-1-yl)-7-[3-(trifluoromethyl)pyridin-2-yl]-6,7,8,9-tetrahydro-5H-pyrimido[4,5-d]azepin-4-amine], 720 nM. With `FC(F)(F)c1ccc(Nc2nc(N3CCCCCC3)nc3c2CCN(c2ncccc2C(F)(F)F)CC3)cc1` [Example 222, 2-Azepan-1-yl-N-[4-(trifluoromethyl)phenyl]-7-[3-(trifluoromethyl)pyridin-2-yl]-6,7,8,9-tetrahydro-5H-pyrimido[4,5-d]azepin-4-amine] the figure was 20 nM. In the case of `FC(F)(F)c1ccc(Nc2nc(N3CCCCCC3)nc3c2CCN(c2ncccc2C(F)(F)F)CC3)cn1` [Example 223, 2-Azepan-1-yl-7-[3-(trifluoromethyl)pyridin-2-yl]-N-[6-(trifluoromethyl)pyridin-3-yl]-6,7,8,9-tetrahydro-5H-pyrimido[4,5-d]azepin-4-amine], the 50% inhibitory concentration (IC50) amounted to 30 nM. In the case of `FC(F)(F)c1ccc(Nc2nc(N3CCCCCC3)nc3c2CCN(c2ncccc2C(F)(F)F)CC3)cc1Cl` [Example 224, 2-Azepan-1-yl-N-[3-chloro-4-(trifluoromethyl)phenyl]-7-[3-(trifluoromethyl)pyridin-2-yl]-6,7,8,9-tetrahydro-5H-pyrimido[4,5-d]azepin-4-amine], the IC50 stood at 20 nM. `COCCN(C)c1nc2c(c(Nc3ccc(C(F)(F)F)nc3)n1)CCN(c1ncccc1C(F)(F)F)CC2` [Example 228, N^2-Methyl-N^2-[2-(methyloxy)ethyl]-7-[3-(trifluoromethyl)pyridin-2-yl]-N^4-[6-(trifluoromethyl)pyridin-3-yl]-6,7,8,9-tetrahydro-5H-pyrimido[4,5-d]azepine-2,4-diamine trifluoroacetic acid salt]: the concentration for half-maximal inhibition (IC50) is 40 nM. For `COCCN(C)c1nc2c(c(Nc3ccc(C(F)(F)F)c(Cl)c3)n1)CCN(c1ncccc1C(F)(F)F)CC2` [Example 229, N^4-[3-Chloro-4-(trifluoromethyl)phenyl]-N^2-methyl-N^2-[2-(methyloxy)ethyl]-7-[3-(trifluoromethyl)pyridin-2-yl]-6,7,8,9-tetrahydro-5H-pyrimido[4,5-d]azepine-2,4-diamine trifluoroacetic acid salt], the half-maximal inhibitory concentration (IC50) was determined as 60 nM. The result for `FC(F)(F)c1ccc(Nc2nc(N3CCC3)nc3c2CCN(c2ncccc2C(F)(F)F)CC3)cc1Cl` [Example 231, 2-Azetidin-1-yl-N-[3-chloro-4-(trifluoromethyl)phenyl]-7-[3-(trifluoromethyl)pyridin-2-yl]-6,7,8,9-tetrahydro-5H-pyrimido[4,5-d]azepin-4-amine trifluoroacetic acid salt] reads 100 nM. With `FC(F)(F)c1ccc(Nc2nc(N3CCCCC3)nc3c2CCN(c2ncccc2C(F)(F)F)CC3)cc1Cl` [Example 233, N-[3-Chloro-4-(trifluoromethyl)phenyl]-2-piperidin-1-yl-7-[3-(trifluoromethyl)pyridin-2-yl]-6,7,8,9-tetrahydro-5H-pyrimido[4,5-d]azepin-4-amine trifluoroacetic acid salt] the figure was 170 nM; with `FC(F)(F)c1ccc(Nc2nc(N3CCCCC3)nc3c2CCN(c2ncccc2C(F)(F)F)CC3)cn1` [Example 234, 2-Piperidin-1-yl-7-[3-(trifluoromethyl)pyridin-2-yl]-N-[6-(trifluoromethyl)pyridin-3-yl]-6,7,8,9-tetrahydro-5H-pyrimido[4,5-d]azepin-4-amine trifluoroacetic acid salt], 80 nM. In the case of `FC1(F)CCCN(c2nc3c(c(Nc4ccc(C(F)(F)F)cc4)n2)CCN(c2ncccc2C(F)(F)F)CC3)C1` [Example 238, 2-(3,3-Difluoropiperidin-1-yl)-N-[4-(trifluoromethyl)phenyl]-7-[3-(trifluoromethyl)pyridin-2-yl]-6,7,8,9-tetrahydro-5H-pyrimido[4,5-d]azepin-4-amine trifluoroacetic acid salt], the concentration for half-maximal inhibition (IC50) is 40 nM.

The record behind these values is US9422293B2 (priority 2006, dated 2016).
